Results from paper PMC11207022, “Enhanced Enzymatic Performance of Immobilized Pseudomonas fluorescens Lipase on ZIF-8@ZIF-67 and Its Application to the Synthesis of Neryl Acetate with Transesterification Reaction” (Molecules, 2024).

Test system: T1, Pseudomonas fluorescens lipase (PFL)
T1 construct: commercial lipase powder (Amano Enzyme Ltd., Nagoya, Japan), used without further treatment; free enzyme
Test: colorimetric p-nitrophenol release at […] nm; initial rates, linear regression (Lineweaver-Burk)
Format: biochemical
Settings: free enzyme; standard assay phosphate buffer pH 7.5, 40 °C, with Triton and acetone

Structure (SMILES): CCCC(=O)Oc1ccc([N+](=O)[O-])cc1 [p-nitrophenol butyrate]
- Km: 760 µM
